Publication PMC9510126, “Hydrophobicity is a key determinant in the activity of arginine-rich cell penetrating peptides” (Scientific Reports, 2022)
Ends that are not written are not given here. * marks the point of attachment. RhodamineB = CCN(CC)c1ccc2c(-c3ccccc3C(=O)*)c3ccc(=[N+](CC)CC)cc-3oc2c1

Key:
[1] = C18 reverse phase HPLC hydrophobicity of (X)TAT and d(X)TAT peptides; format: physicochemical; conditions: chromatographic, C18, 0–40% B over 20 min
Experimental: In order to assess the hydrophobicity contributed by each X group, the peptides were first analyzed by reverse phase HPLC using a C18 column, using gradients of buffer A (water/TFA 99.9:0.1) and buffer B (acetonitrile/water/TFA 89.9:10:0.1 v:v:v) (gradient of 0–40% B over 20 min). […] All d(X)TAT peptides eluted over a range of 10–35% acetonitrile. […] One caveat of this approach is that the buffer system used for peptide analysis is pH 2 (due to the presence of TFA, required to protonate residue side chains). However, pH 2 is not representative of the pH that CPPs may be exposed to when in contact with cells, either pH 7.2 outside the plasma membrane, or pH between 6.5 and 4.5 while inside acidic endosomes. In order to establish the relative hydrophobicities of d(X)TAT peptides at these pHs, we sought to use other techniques, including thin layer chromatography using C18, aluminum oxide or silica stationary phases. Unfortunately, the arginine-rich peptides could not be separated on these systems. To solve this problem, each individual X group was synthesized, using acetylated and amidated N and C-terminal positions to mimic the peptide backbone found in the d(X)TAT constructs (Fig. 1A, Figure S11). Each Ac-X-NH2 group was analyzed by HPLC and by RP18 TLC, using 40% acetonitrile and 60% PBS as mobile phase. The HPLC elutions of Ac-X-NH2 correlated with the HPLC elutions of their respective d(X)TAT counterparts (Fig. 1C). Similarly, the relative hydrophobicities of Ac-X-NH2 determined by TLC (measured as 1-Rf) at pH 4 or 8 were in good agreement with the results obtained by HPLC (Fig. 1D). […] In the case of DEAC, the protonation state of the fluorophore has, to our knowledge, not been characterized.
All rpHPLC retention times were analyzed using an Agilent HP 1200 series instrument on an analytical Phenomenex Luna Omega Polar C18 column (5 μm, 4.6 mm × 250 mm). The flow rate was 2 mL/min, and detection was at 214 nm. A binary solvent system was used comprising 99.9% H2O/0.1% TFA (solvent A) and 90% Acetonitrile/9.9% H2O/0.1% TFA (solvent B). […]

MDA-MB-231 cells = assay: Delivery of TMR-k5 probe into live cells (nuclear staining); format: cell-based, human; conditions: MDA-MB-231, TMR-k5 20 μM, 1 h, biological triplicates
Text: To test the relative delivery efficiency of the d(X)TAT peptides, the cell lines MDA-MB-231 (epithelial-like, human breast cancer, spindle-shaped) and Neuro-2a (mouse neuroblastoma with neuronal and amoeboid stem cell morphology) were chosen. These cell lines are routinely used in cancer research, neuroscience, and toxicology. In the context of this study, we rationalized that the distinct differences in origin and characteristics between MDA-MB-231 and Neuro-2a properties may be useful to assess the generality of the results obtained. MDA-MB-231 or Neuro-2a cells were incubated with d(X)TAT peptides at various concentrations and TMR-k5 (20 μM) for 1 h. Cells were then washed, incubated with the DNA stain Hoechst and the live/dead marker SYTOX green (or SYTOX blue), and imaged by fluorescence microscopy. The localization of TMR-k5 in individual nuclei was then assessed by measuring the overlap between TMR and Hoechst signals (Fig. 2, Figure S13). […] This is because, in our experience, dfTAT and dfTAT analogs display a threshold behavior where, below a certain endosomal concentration, endosomal leakage is not achieved. In contrast above this threshold most late endosomes are permeabilized. […] Our rationale was therefore to titrate cells with different concentrations of d(X)TAT agents, monitor how many cells display cytosolic/nuclear delivery of TMR-k5, and compare the different d(X)TAT peptides.
MDA-MB-231 and Neuro2a cells obtained from ATCC (breast cancer-derived epithelial) were cultured in humidified atmosphere at 5% CO2 and 37 °C. Cells were seeded in plastic 48-well plates (Fisher) for quantitative analysis or 8-well Labtek II plates (Fisher) for qualitative imaging at 100× magnification. The cells were grown to 80–90% confluency in a 37 °C humidified atmosphere containing 5% CO2. Cells were washed three times with Leibovitz’s L15 media (L15) (Fisher). Cells were then incubated with peptide and 20 µM of the TMR-k5 pentalysine probe at 37 °C for 1 h. This was followed by washing the cells three times with L15 supplemented with heparin (Sigma-Aldrich) (1 mg/mL) and an extra L15 wash. […] Additionally, the cell permeable dye Hoechst 33342 (Thermo Fisher Scientific o) was used for nuclear staining. Cells were imaged using an EVOS FL Auto 2 inverted microscope (Thermo Fisher Scientific). The microscope is equipped with a heating chamber maintained at 37 °C. Images were acquired using bright field imaging and five fluorescence filter sets: CFP (Ex = 436 ± 10 nm, Em = 480 ± 20 nm), RFP (Ex = 560 ± 20 nm, Em = 630 ± 35 nm), FITC (Ex = 488 ± 10 nm Em = 520 ± 20 nm), DAPI (Ex = 350 ± 50 nm, Em = 460 ± 25 nm), […]. For image viewing and processing individual images, the Celleste 4.0 software (Thermo Fisher Scientific) was used. Nuclear regions in 20× images where identified using Hoechst staining (the quantification process is described in Figure S13). The intensity of these objects in the TMR channel was then determined using the Celleste software. Cells stained by the SYTOX or DRAQ dyes were considered dead and not counted as positive for delivery. Cells displaying a nuclear TMR-k5 fluorescence above the fluorescence threshold determined for TMR-k5 alone were considered positive for delivery (if excluding SYTOX or DRAQ7 stain, and if visually showing stained nucleoli for confirmation of intracellular localization). The percentage of cells positive for TMR-k5 nuclear staining was then calculated, using Hoechst-stained cells to count the total number of cells present. […] Instead, this assay quantifies the number of cells in which the nuclear fluorescence of TMR-k5 is above a detection threshold. This threshold is dependent on the microscope, imaging conditions, and the concentration of TMR-k5 used during incubation (Figure S13). The reproducibility of all the experiments was assessed by performing experiments with independent batches of cell cultures on three different days (i.e., biological triplicates). […]

live cells = conditions: cited from earlier work
Experimental: Several strategies have been pursued to improve the delivery properties of CPPs like TAT. They include addition of endosomolytic peptide sequences, addition of hydrophobic residues and cyclization. We and others have shown that reagents which combine multiple copies of the TAT peptide, or TAT-like analogs, are also more efficient at entering cells than their monomeric TAT counterpart. […] In particular, protein payloads co-incubated with dfTAT reach the cytosol of cells by escaping late endosomes specifical ...

[2] = parameters: method as in PMID 24227203; conditions: cited from earlier work

d(K(RhB))TAT: disulfide dimer of CXRKKRRQRRRG with X = lysine conjugated to rhodamine B (CK(RhodamineB)RKKRRQRRRG-NH2; also: disulfide dimer)
relative hydrophobicity of X group by C18 HPLC ([1]; 0.1% TFA (pH 2), ranking within the d(X)TAT series): most hydrophobic | d(X)TAT concentration at which delivery is achieved in a high percentage of cells (MDA-MB-231 cells): < 3 µM

(CK(TMR)RKKRRQRRR)2 (disulfide) [dfTAT, dimer of TAT linked by a cystine disulfide bridge, labeled with two tetramethylrhodamine fluorophores]
endosomal escape (live cells): high levels of endosomal escape | time for cell penetration and payload delivery (live cells): less than an hour | protein payload remaining trapped inside endosomes relative to what entered the cytosol (live cells; protein payloads co-incubated with dfTAT): less than 10%

(K(RhB))TAT: monomeric peptide CXRKKRRQRRRG with X = K(RhB) (CK(RhodamineB)RKKRRQRRRG-NH2)
effect of dimerization on hydrophobicity (dimer vs monomer) ([1]; pH 2, (X)TAT vs d(X)TAT): most impacted by dimerization

O=C1OC2(c3ccc(O)cc3Oc3cc(O)ccc32)c2ccccc21 [fluorescein]
pKa (dianionic/monoanionic forms) [2]: 6.4 | pKa (monoanionic/neutral forms) [2]: 4.3 | pKa (neutral/cationic forms) [2]: 2.1
